Test results: ChEMBL document CHEMBL2331144, “Synthesis and anticancer activity of analogues of phenstatin, with a phenothiazine A-ring, as a new class of microtubule-targeting agents” (Bioorg Med Chem Lett, 2013)

Experiments:
MDA-MB-231 = test: Growth inhibition of human MDA-MB-231 cells after 48 hrs by sulforhodamine B assay; format: functional; conditions: MDA-MB-231, 48 h
SW-620 = test: Growth inhibition of human SW620 cells after 48 hrs by sulforhodamine B assay; format: functional; conditions: SW-620, 48 h
HL-60(TB) = test: Growth inhibition of human HL-60(TB) cells after 48 hrs by sulforhodamine B assay; format: functional; conditions: HL-60, 48 h
RPMI-8226 = test: Growth inhibition of human RPMI8226 cells after 48 hrs by sulforhodamine B assay; format: functional; conditions: RPMI-8226, 48 h
K562 = test: Growth inhibition of human K562 cells after 48 hrs by sulforhodamine B assay; format: functional; conditions: K562, 48 h
MCF7 = test: Growth inhibition of human MCF7 cells after 48 hrs by sulforhodamine B assay; format: functional; conditions: MCF7, 48 h
HOP-62 = test: Growth inhibition of human HOP62 cells after 48 hrs by sulforhodamine B assay; format: functional; conditions: HOP-62, 48 h
KM12 = test: Growth inhibition of human KM12 cells after 48 hrs by sulforhodamine B assay; format: functional; conditions: KM12, 48 h
[1] = Growth inhibition of human NCI-ADR-RES cells after 48 hrs by sulforhodamine B assay; format: functional
ACHN = test: Growth inhibition of human ACHN cells after 48 hrs by sulforhodamine B assay; format: functional
BT-549 = test: Growth inhibition of human BT549 cells after 48 hrs by sulforhodamine B assay; format: functional; conditions: BT-549, 48 h
OVCAR-8 = test: Growth inhibition of human OVCAR8 cells after 48 hrs by sulforhodamine B assay; format: functional; conditions: OVCAR-8, 48 h
CAKI-1 = test: Growth inhibition of human CAKI-1 cells after 48 hrs by sulforhodamine B assay; format: functional; conditions: CAKI-1, 48 h
NCI-H460 = test: Growth inhibition of human NCI-H460 cells after 48 hrs by sulforhodamine B assay; format: functional; conditions: NCI-H460, 48 h
DU-145 = test: Growth inhibition of human DU145 cells after 48 hrs by sulforhodamine B assay; format: functional; conditions: DU-145, 48 h
HT-29 = test: Growth inhibition of human HT-29 cells after 48 hrs by sulforhodamine B assay; format: functional; conditions: HT-29, 48 h
SNB-75 = test: Growth inhibition of human SNB75 cells after 48 hrs by sulforhodamine B assay; format: functional; conditions: SNB-75, 48 h
OVCAR-4 = test: Growth inhibition of human OVCAR4 cells after 48 hrs by sulforhodamine B assay; format: functional; conditions: OVCAR-4, 48 h
SF-268 = test: Growth inhibition of human SF268 cells after 48 hrs by sulforhodamine B assay; format: functional; conditions: SF-268, 48 h
UACC-62 = test: Growth inhibition of human UACC62 cells after 48 hrs by sulforhodamine B assay; format: functional; conditions: UACC-62, 48 h
CCRF-CEM = test: Growth inhibition of human CCRF-CEM cells after 48 hrs by sulforhodamine B assay; format: functional
A549 = test: Growth inhibition of human A549/ATCC cells after 48 hrs by sulforhodamine B assay; format: functional; conditions: A549, 48 h
TK-10 = test: Growth inhibition of human TK10 cells after 48 hrs by sulforhodamine B assay; format: functional; conditions: TK-10, 48 h
UACC-257 = test: Growth inhibition of human UACC257 cells after 48 hrs by sulforhodamine B assay; format: functional; conditions: UACC-257, 48 h
PC-3 = test: Growth inhibition of human PC3 cells after 48 hrs by sulforhodamine B assay; format: functional; conditions: PC-3, 48 h
SR = test: Growth inhibition of human SR cells after 48 hrs by sulforhodamine B assay; format: functional
SK-MEL-5 = test: Growth inhibition of human SK-MEL-5 cells after 48 hrs by sulforhodamine B assay; format: functional; conditions: SK-MEL-5, 48 h
SK-MEL-28 = test: Growth inhibition of human SK-MEL-28 cells after 48 hrs by sulforhodamine B assay; format: functional; conditions: SK-MEL-28, 48 h
MDA-MB-435 = test: Growth inhibition of human MDA-MB-435 cells after 48 hrs by sulforhodamine B assay; format: functional; conditions: MDA-MB-435, 48 h
SF-539 = test: Growth inhibition of human SF539 cells after 48 hrs by sulforhodamine B assay; format: functional; conditions: SF-539, 48 h
OVCAR-3 = test: Growth inhibition of human OVCAR3 cells after 48 hrs by sulforhodamine B assay; format: functional; conditions: OVCAR-3, 48 h
SF-295 = test: Growth inhibition of human SF295 cells after 48 hrs by sulforhodamine B assay; format: functional; conditions: SF-295, 48 h
HCT-15 = test: Growth inhibition of human HCT15 cells after 48 hrs by sulforhodamine B assay; format: functional; conditions: HCT-15, 48 h
T47D = test: Growth inhibition of human T47D cells after 48 hrs by sulforhodamine B assay; format: functional
NCI-H23 = test: Growth inhibition of human NCI-H23 cells after 48 hrs by sulforhodamine B assay; format: functional; conditions: NCI-H23, 48 h
Ovis aries = species: Ovis aries; test: Inhibition of sheep brain tubulin polymerization at 100 uM using DAPI by fluorimetry
OVCAR-5 = test: Growth inhibition of human OVCAR5 cells after 48 hrs by sulforhodamine B assay; format: functional; conditions: OVCAR-5, 48 h
MDA-MB-468 = test: Growth inhibition of human MDA-MB-468 cells after 48 hrs by sulforhodamine B assay; format: functional; conditions: MDA-MB-468, 48 h
LOX IMVI = test: Growth inhibition of human LOXIMVI cells after 48 hrs by sulforhodamine B assay; format: functional
MOLT-4 = test: Growth inhibition of human MOLT4 cells after 48 hrs by sulforhodamine B assay; format: functional; conditions: MOLT-4, 48 h
IGROV-1 = test: Growth inhibition of human IGROV1 cells after 48 hrs by sulforhodamine B assay; format: functional; conditions: IGROV-1, 48 h
HCT-116 = test: Growth inhibition of human HCT116 cells after 48 hrs by sulforhodamine B assay; format: functional; conditions: HCT-116, 48 h
UO-31 = test: Growth inhibition of human UO31 cells after 48 hrs by sulforhodamine B assay; format: functional; conditions: UO-31, 48 h
[2] = Growth inhibition of human Hs 578T cells after 48 hrs by sulforhodamine B assay; format: functional
RXF 393 = test: Growth inhibition of human RXF393 cells after 48 hrs by sulforhodamine B assay; format: functional; conditions: RXF 393, 48 h
SN12C = test: Growth inhibition of human SN12C cells after 48 hrs by sulforhodamine B assay; format: functional
COLO 205 = test: Growth inhibition of human COLO205 cells after 48 hrs by sulforhodamine B assay; format: functional; conditions: COLO 205, 48 h
SK-MEL-2 = test: Growth inhibition of human SK-MEL-2 cells after 48 hrs by sulforhodamine B assay; format: functional; conditions: SK-MEL-2, 48 h
SK-OV-3 = test: Growth inhibition of human SKOV3 cells after 48 hrs by sulforhodamine B assay; format: functional; conditions: SK-OV-3, 48 h
Malme-3M = test: Growth inhibition of human MALME-3M cells after 48 hrs by sulforhodamine B assay; format: functional
786-0 = test: Growth inhibition of human 786-0 cells after 48 hrs by sulforhodamine B assay; format: functional; conditions: 786-0, 48 h
NCI-H522 = test: Growth inhibition of human NCI-H522 cells after 48 hrs by sulforhodamine B assay; format: functional; conditions: NCI-H522, 48 h
A498 = test: Growth inhibition of human A498 cells after 48 hrs by sulforhodamine B assay; format: functional; conditions: A498, 48 h
[3] = Growth inhibition of human HCC2998 cells after 48 hrs by sulforhodamine B assay; format: functional; conditions: HCC 2998, 48 h
M14 = test: Growth inhibition of human M14 cells after 48 hrs by sulforhodamine B assay; format: functional; conditions: M14, 48 h
HOP-92 = test: Growth inhibition of human HOP92 cells after 48 hrs by sulforhodamine B assay; format: functional; conditions: HOP-92, 48 h

`COc1c(F)ccc(C(=O)N2c3ccccc3Sc3ccccc32)c1F` showed a GI50 (MDA-MB-231) of 3660 nM, a GI50 (SW-620) of 3680 nM and a GI50 (HL-60(TB)) of 3990 nM. The GI50 (RPMI-8226) was 3220 nM, the GI50 (K562) was 3240 nM and the GI50 (MCF7) was 5500 nM. The GI50 (HOP-62) was 8370 nM, the GI50 (KM12) was 4010 nM and the GI50 [1] was 2970 nM. It also gave a GI50 (ACHN) of 7960 nM, a GI50 (BT-549) of 5210 nM and a GI50 (OVCAR-8) of 10000 nM. It also gave a GI50 (CAKI-1) of 4010 nM, a GI50 (NCI-H460) of 3670 nM and a GI50 (DU-145) of 14000 nM. For the same molecule, the GI50 (HT-29) was 3240 nM, the GI50 (SNB-75) was 2320 nM and the GI50 (OVCAR-4) was 10300 nM. For the same molecule, the GI50 (SF-268) was 6500 nM, the GI50 (UACC-62) was 2680 nM and the GI50 (CCRF-CEM) was 5000 nM. The GI50 (A549) was 4070 nM, the GI50 (TK-10) was 10200 nM and the GI50 (UACC-257) was 6510 nM. The GI50 (PC-3) was 2840 nM, the GI50 (SR) was 2330 nM and the GI50 (SK-MEL-5) was 2950 nM. The GI50 (SK-MEL-28) was 4930 nM, the GI50 (MDA-MB-435) was 1800 nM and the GI50 (SF-539) was 5030 nM. It also gave a GI50 (OVCAR-3) of 4200 nM, a GI50 (SF-295) of 6100 nM and a GI50 (HCT-15) of 3070 nM. It also gave a GI50 (T47D) of 5240 nM, a GI50 (NCI-H23) of 4890 nM and an inhibition (Ovis aries) of 10%. For the same molecule, the GI50 (OVCAR-5) was 24100 nM, the GI50 (MDA-MB-468) was 1700 nM and the GI50 (LOX IMVI) was 4720 nM. It also gave a GI50 (MOLT-4) of 4290 nM, a GI50 (IGROV-1) of 4870 nM and a GI50 (HCT-116) of 3600 nM. It also gave a GI50 (UO-31) of 6520 nM, a GI50 [2] of 6920 nM and a GI50 (RXF 393) of 2290 nM. For the same molecule, the GI50 (SN12C) was 6070 nM, the GI50 (COLO 205) was 6470 nM and the GI50 (SK-MEL-2) was 3450 nM. For the same molecule, the GI50 (SK-OV-3) was 12200 nM, the GI50 (Malme-3M) was 3090 nM and the GI50 (786-0) was 7570 nM. For the same molecule, the GI50 (NCI-H522) was 2700 nM, the GI50 (A498) was 2220 nM and the GI50 [3] was 11700 nM. It also gave a GI50 (M14) of 3860 nM.

Work on `COc1cc2cc(C(=O)N3c4ccccc4Sc4ccccc43)[nH]c2cc1OC` yielded a GI50 (MDA-MB-231) of 184 nM, a GI50 (SW-620) of 418 nM and a GI50 (HL-60(TB)) of 387 nM. It also gave a GI50 (RPMI-8226) of 902 nM, a GI50 (K562) of 437 nM and a GI50 (MCF7) of 368 nM. The GI50 (HOP-62) was 838 nM, the GI50 (KM12) was 620 nM and the GI50 [1] was 571 nM. It also gave a GI50 (ACHN) of 611 nM, a GI50 (BT-549) of 6060 nM and a GI50 (OVCAR-8) of 1630 nM. The GI50 (CAKI-1) was 573 nM, the GI50 (NCI-H460) was 396 nM and the GI50 (DU-145) was 679 nM. It also gave a GI50 (HT-29) of 395 nM, a GI50 (SNB-75) of 392 nM and a GI50 (OVCAR-4) of 1750 nM. It also gave a GI50 (SF-268) of 10200 nM, a GI50 (UACC-62) of 529 nM and a GI50 (CCRF-CEM) of 589 nM. The GI50 (A549) was 656 nM, the GI50 (TK-10) was 8310 nM and the GI50 (PC-3) was 435 nM. The GI50 (SR) was 303 nM, the GI50 (SK-MEL-5) was 300 nM and the GI50 (SK-MEL-28) was 829 nM. For the same molecule, the GI50 (MDA-MB-435) was 184 nM, the GI50 (SF-539) was 517 nM and the GI50 (OVCAR-3) was 366 nM. The GI50 (HOP-92) was 54 nM, the GI50 (SF-295) was 329 nM and the GI50 (HCT-15) was 442 nM. It also gave a GI50 (T47D) of 804 nM, a GI50 (NCI-H23) of 7140 nM and an inhibition (Ovis aries) of 36%. The GI50 (OVCAR-5) was 2590 nM, the GI50 (MDA-MB-468) was 204 nM and the GI50 (LOX IMVI) was 3310 nM. The GI50 (MOLT-4) was 1540 nM, the GI50 (IGROV-1) was 1880 nM and the GI50 (HCT-116) was 537 nM. It also gave a GI50 [2] of 1960 nM, a GI50 (RXF 393) of 363 nM and a GI50 (SN12C) of 3860 nM. For the same molecule, the GI50 (COLO 205) was 595 nM, the GI50 (SK-MEL-2) was 873 nM and the GI50 (SK-OV-3) was 723 nM. For the same molecule, the GI50 (Malme-3M) was 503 nM, the GI50 (786-0) was 941 nM and the GI50 (NCI-H522) was 335 nM. For the same molecule, the GI50 (A498) was 215 nM, the GI50 [3] was 23400 nM and the GI50 (M14) was 599 nM.
